Experimental findings from patent US20250312352A1, “GLP-1R MODULATING COMPOUNDS” (Gilead Sciences, Inc., priority 2021, published 2025) are described below.

Each structure is given as a SMILES string.

T1 sequence (P43220 24-463): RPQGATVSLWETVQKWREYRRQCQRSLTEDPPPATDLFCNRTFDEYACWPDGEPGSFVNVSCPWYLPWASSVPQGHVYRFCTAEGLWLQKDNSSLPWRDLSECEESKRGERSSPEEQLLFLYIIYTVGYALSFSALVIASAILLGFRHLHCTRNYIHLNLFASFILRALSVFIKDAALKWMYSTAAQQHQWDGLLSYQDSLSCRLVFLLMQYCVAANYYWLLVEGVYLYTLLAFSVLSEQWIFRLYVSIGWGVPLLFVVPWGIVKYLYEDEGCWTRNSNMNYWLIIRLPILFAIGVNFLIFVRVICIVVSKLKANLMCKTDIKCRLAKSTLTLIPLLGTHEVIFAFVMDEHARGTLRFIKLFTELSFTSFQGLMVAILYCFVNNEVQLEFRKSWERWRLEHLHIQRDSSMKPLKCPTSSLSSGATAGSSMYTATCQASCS

The assay addresses T1, GLP-1R (Homo sapiens, UniProt P43220).
T1 construct: host or cells: CHO cells
Briefly: GLP-1R activation cAMP assay (Assay 1 or Assay 2). The assay is classed as cell-based. To be noted: cAMP increase in CHO cells stably expressing GLP-1R; compounds run on one of the two cAMP assays. In a few lines: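 EC50 values come from a sigmoidal fit of HTRF-detected cAMP rise versus log agonist concentration. GLP-1R-expressing CHO cells, equilibrated 1 h at 37 °C in HBSS with HEPES and BSA, received a 10-point compound dose series for 30 min before detection.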
The compound `CNC(=O)c1cc(Cl)c(COc2cc(-c3cc(F)c(Cc4nc5c(F)cc(C(=O)O)cc5n4C[C@@H]4CCO4)cc3F)ccc2F)cn1` [Example 388, (S)-2-((3′-((4-chloro-6-(methylcarbamoyl)pyridin-3-yl)methoxy)-2,4′,5-trifluoro-[1,1′-biphenyl]-4-yl)methyl)-4-fluoro-1-(oxetan-2-ylmethyl)-1H-benzo[d]imidazole-6-carboxylic acid] displayed an EC50 of 0.186 nM. Next, `O=C(O)c1ccc2nc(Cc3cc(F)c(-c4cccc(OCc5cn6ccccc6n5)n4)cc3F)n(C[C@@H]3CCO3)c2c1` [Example 30, (S)-2-(2,5-difluoro-4-(6-(imidazo[1,2-a]pyridin-2-ylmethoxy)pyridin-2-yl)benzyl)-1-(oxetan-2-ylmethyl)-1H-benzo[d]imidazole-6-carboxylic acid]: 1.99 nM; `O=C(O)c1ccc2nc(Cc3cc(F)c(-c4cccc(OCc5nnc(C6CC6)o5)n4)cc3F)n(C[C@@H]3CCO3)c2c1` [Example 67, (S)-2-(4-(6-((5-cyclopropyl-1,3,4-oxadiazol-2-yl)methoxy)pyridin-2-yl)-2,5-difluorobenzyl)-1-(oxetan-2-ylmethyl)-1H-benzo[d]imidazole-6-carboxylic acid]: 6.52 nM; `COCCn1c(Cc2cc(F)c(-c3cccc(OCc4ccc(-c5cnn(CCN6CCOCC6)c5)cc4F)n3)cc2F)nc2ccc(C(=O)O)cc21` [Example 227, 2-(2,5-difluoro-4-(6-((2-fluoro-4-(1-(2-morpholinoethyl)-1H-pyrazol-4-yl)benzyl)oxy)pyridin-2-yl)benzyl)-1-(2-methoxyethyl)-1H-benzo[d]imidazole-6-carboxylic acid]: 3.45 nM. Take `CC1(C)COC[C@H]1n1c(Cc2cc(F)c(-c3cccc(OCc4ncc(Cl)s4)n3)cc2F)nc2ccc(C(=O)O)cc21` [Example 254, (S)-2-(4-(6-((5-chlorothiazol-2-yl)methoxy)pyridin-2-yl)-2,5-difluorobenzyl)-1-(4,4-dimethyltetrahydrofuran-3-yl)-1H-benzo[d]imidazole-6-carboxylic acid]: a half-maximal effect (EC50) was put at 0.374 nM. For `O=C(O)c1ccc2nc(Cc3cc(F)c(-c4cccc(OCc5ccc(-c6cnc(C7CC7)o6)cc5F)n4)cc3F)n(C[C@@H]3CCO3)c2c1` [Example 160, (S)-2-(4-(6-((4-(2-cyclopropyloxazol-5-yl)-2-fluorobenzyl)oxy)pyridin-2-yl)-2,5-difluorobenzyl)-1-(oxetan-2-ylmethyl)-1H-benzo[d]imidazole-6-carboxylic acid], the EC50 is 0.2 nM. Turning to `CO[C@H](C)Cn1c(Cc2cc(F)c(-c3cccc(OCc4ncc(-c5cnn(C)c5)s4)n3)cc2F)nc2ccc(C(=O)O)cc21` [Example 224, 2-[[2,5-difluoro-4-[6-[[5-(1-methylpyrazol-4-yl)thiazol-2-yl]methoxy]-2-pyridyl]phenyl]methyl]-3-[(2R)-2-methoxypropyl]benzimidazole-5-carboxylic acid], the half-maximal effective concentration (EC50) is 1.11 nM. `O=C(O)c1ccc2nc(Cc3cc(F)c(-c4cccc(OCc5ncc(C#CC6(C(F)(F)F)CC6)s5)n4)cc3F)n(C[C@@H]3CCO3)c2c1` [Example 335, (S)-2-(2,5-difluoro-4-(6-((5-((1-(trifluoromethyl)cyclopropyl)ethynyl)thiazol-2-yl)methoxy)pyridin-2-yl)benzyl)-1-(oxetan-2-ylmethyl)-1H-benzo[d]imidazole-6-carboxylic acid] gave an EC50 of 0.202 nM. As to `CCOc1nnc(COc2nc(-c3cc(Cl)c(Cc4nc5ccc(C(=O)O)cc5n4[C@@H]4COCC4(C)C)cc3C)ccc2F)s1` [Example 420, (S)-2-(2-chloro-4-(6-((5-ethoxy-1,3,4-thiadiazol-2-yl)methoxy)-5-fluoropyridin-2-yl)-5-methylbenzyl)-1-(4,4-dimethyltetrahydrofuran-3-yl)-1H-benzo[d]imidazole-6-carboxylic acid], the EC50 was determined as 0.178 nM. Consider `Cn1cc(-c2cnc(COc3nc(-c4cc(F)c(Cc5nc6c(F)cc(C(=O)O)cc6n5C[C@@H]5CCO5)cc4F)ccc3F)s2)cn1` [Example 98, (S)-2-(2,5-difluoro-4-(5-fluoro-6-((5-(1-methyl-1H-pyrazol-4-yl)thiazol-2-yl)methoxy)pyridin-2-yl)benzyl)-4-fluoro-1-(oxetan-2-ylmethyl)-1H-benzo[d]imidazole-6-carboxylic acid], for which the EC50 was determined as 0.03 nM. In turn, `NC(=O)c1csc(COc2cccc(-c3cc(F)c(Cc4nc5ccc(C(=O)O)cc5n4C[C@@H]4CCO4)cc3F)n2)n1` [Example 5, (S)-2-(4-(6-((4-carbamoylthiazol-2-yl)methoxy)pyridin-2-yl)-2,5-difluorobenzyl)-1-(oxetan-2-ylmethyl)-1H-benzo[d]imidazole-6-carboxylic acid] gave an EC50 of 0.5 nM. Compound `CC1(C)COC[C@H]1n1c(Cc2cc(F)c(-c3ccc(F)c(OCc4ncc(C(F)F)s4)n3)cc2F)nc2ccc(C(=O)O)cc21` [Example 416, (S)-2-(4-(6-((5-(difluoromethyl)thiazol-2-yl)methoxy)-5-fluoropyridin-2-yl)-2,5-difluorobenzyl)-1-(4,4-dimethyltetrahydrofuran-3-yl)-1H-benzo[d]imidazole-6-carboxylic acid] showed an EC50 of 0.336 nM. This EC50 and that of the compound before are within 1.5-fold of each other.

`O=C(O)c1ccc2nc(Cc3cc(F)c(-c4cccc(OCc5ncc(-c6ccns6)s5)n4)cc3F)n(C[C@@H]3CCO3)c2c1` [Example 100, (S)-2-(2,5-difluoro-4-(6-((5-(isothiazol-5-yl)thiazol-2-yl)methoxy)pyridin-2-yl)benzyl)-1-(oxetan-2-ylmethyl)-1H-benzo[d]imidazole-6-carboxylic acid] displayed an EC50 of 0.09 nM.

Regarding `CNC(=O)c1cc(Cl)c(COc2cccc(-c3cc(F)c(Cc4nc5ccc(C(=O)O)cc5n4C[C@@H]4CCO4)cc3F)n2)cn1` [Example 46, (S)-2-(4-(6-((4-chloro-6-(methylcarbamoyl)pyridin-3-yl)methoxy)pyridin-2-yl)-2,5-difluorobenzyl)-1-(oxetan-2-ylmethyl)-1H-benzo[d]imidazole-6-carboxylic acid], it took 0.14 nM to reach a half-maximal effect (EC50). Next, `Cn1cc(C#Cc2cc(F)c(COc3cccc(-c4cc(F)c(Cc5nc6ccc(C(=O)O)cc6n5C[C@@H]5CCO5)cc4F)n3)cn2)cn1` [Example 144, (S)-2-(2,5-difluoro-4-(6-((4-fluoro-6-((1-methyl-1H-pyrazol-4-yl)ethynyl)pyridin-3-yl)methoxy)pyridin-2-yl)benzyl)-1-(oxetan-2-ylmethyl)-1H-benzo[d]imidazole-6-carboxylic acid]: 0.99 nM; `Cn1cnc(COc2cccc(-c3cc(F)c(Cc4nc5ccc(C(=O)O)cc5n4C[C@@H]4CCO4)cc3F)n2)c1` [Example 177, (S)-2-(2,5-difluoro-4-(6-((1-methyl-1H-imidazol-4-yl)methoxy)pyridin-2-yl)benzyl)-1-(oxetan-2-ylmethyl)-1H-benzo[d]imidazole-6-carboxylic acid]: 34.6 nM; `CC1(COc2nnc(COc3cccc(-c4cc(F)c(Cc5nc6ccc(C(=O)O)cc6n5C[C@@H]5CCO5)cc4F)n3)s2)CC1` [Example 343, (S)-2-(2,5-difluoro-4-(6-((5-((1-methylcyclopropyl)methoxy)-1,3,4-thiadiazol-2-yl)methoxy)pyridin-2-yl)benzyl)-1-(oxetan-2-ylmethyl)-1H-benzo[d]imidazole-6-carboxylic acid]: 0.459 nM.

Take `CC1(C#Cc2ccc(COc3cccc(-c4cc(F)c(Cc5nc6ccc(C(=O)O)cc6n5C[C@@H]5CCO5)cc4F)n3)s2)COC1` [Example 113, (S)-2-(2,5-difluoro-4-(6-((5-((3-methyloxetan-3-yl)ethynyl)thiophen-2-yl)methoxy)pyridin-2-yl)benzyl)-1-(oxetan-2-ylmethyl)-1H-benzo[d]imidazole-6-carboxylic acid]: the EC50 came to 0.16 nM. Take `Cn1nc(COc2cccc(-c3cc(F)c(Cc4nc5ccc(C(=O)O)cc5n4C[C@@H]4CCO4)cc3F)n2)cc1CC#N` [Example 37, (S)-2-(4-(6-((5-(cyanomethyl)-1-methyl-1H-pyrazol-3-yl)methoxy)pyridin-2-yl)-2,5-difluorobenzyl)-1-(oxetan-2-ylmethyl)-1H-benzo[d]imidazole-6-carboxylic acid]: the midpoint of the response, the EC50, lay at 8.46 nM. As to `CC1(C)COC[C@@H]1n1c(Cc2cc(F)c(-c3cccc(OCc4ccc(C(=O)NC5(C#N)CC5)nc4)n3)cc2F)nc2ccc(C(=O)O)cc21` [Example 202, (R)-2-(4-(6-((6-((1-cyanocyclopropyl)carbamoyl)pyridin-3-yl)methoxy)pyridin-2-yl)-2,5-difluorobenzyl)-1-(4,4-dimethyltetrahydrofuran-3-yl)-1H-benzo[d]imidazole-6-carboxylic acid], a half-maximal effect (EC50) was put at 0.58 nM. In turn, `N#Cc1sc(COc2cccc(-c3cc(F)c(Cc4nc5ccc(C(=O)O)cc5n4C[C@@H]4CCO4)cc3F)n2)cc1F` [Example 205, 2-[[4-[6-[(5-cyano-4-fluoro-2-thienyl)methoxy]-2-pyridyl]-2,5-difluoro-phenyl]methyl]-3-[[(2S)-oxetan-2-yl]methyl]benzimidazole-5-carboxylic acid] had an EC50 of 0.25 nM. In turn, `Cn1cncc1C#Cc1ccc(COc2cccc(-c3cc(F)c(Cc4nc5c(F)cc(C(=O)O)cc5n4C[C@@H]4CCO4)cc3F)n2)c(F)c1` [Example 395, (S)-2-(2,5-difluoro-4-(6-((2-fluoro-4-((1-methyl-1H-imidazol-5-yl)ethynyl)benzyl)oxy)pyridin-2-yl)benzyl)-4-fluoro-1-(oxetan-2-ylmethyl)-1H-benzo[d]imidazole-6-carboxylic acid] registered an EC50 of 0.197 nM. The EC50 values of the last two compounds are within 1.5-fold of each other. On to `Cn1c(COc2cccc(-c3cc(F)c(Cc4nc5ccc(C(=O)O)cc5n4C[C@@H]4CCO4)cc3F)n2)nc2ccccc21` [Example 48, (S)-2-(2,5-difluoro-4-(6-((1-methyl-1H-benzo[d]imidazol-2-yl)methoxy)pyridin-2-yl)benzyl)-1-(oxetan-2-ylmethyl)-1H-benzo[d]imidazole-6-carboxylic acid], for which the EC50 was found to be 2.33 nM.

The term EC50 denotes the concentration that produces a half-maximal response.
